Source: patent US7253299B2, “Process for purifying n2-(1(s)-ethoxycarbonyl-3-phenylpropyl)-n6-thifluoroacetyl-l-lysine” (Kaneka Corporation, priority 2001, dated 2007)

Assay: Solubility of polymorphs in water/acetonitrile mixed solvent (saturated solution, HPLC)
Format: physicochemical
Conditions: water/acetonitrile mixed solvent (water/acetonitrile volume ratio 0.25), 15° C., ordinary pressure
Method: A 50 ml four-neck flask was charged with 30 ml of a water/acetonitrile mixed solvent (water/acetonitrile volume ratio 0.25). After cooling the solvent to 5° C. with stirring, 5 g of each of polymorphs (I form, […] and […]) of N^2-(1(S)-ethoxycarbonyl-3-phenylpropyl)-N^6-trifluoroacetyl-L-lysine was added thereto, and the temperature was elevated to a predetermined temperature at a rate of 10° C./hour. After reaching the predetermined temperature, the solution was maintained at that temperature for about 1 hour. A sample of the resulting saturated solution was taken out, and the concentration (% by weight) of N^2-(1(S)-ethoxycarbonyl-3-phenylpropyl)-N^6-trifluoroacetyl-L-lysine was measured by HPLC analysis to determine the solubility at that temperature.

| solubility | Compound |
| --- | --- |
| about 2.5 % by weight | CCOC(=O)[C@H](CCc1ccccc1)N[C@@H](CCCCNC(=O)C(F)(F)F)C(=O)O [I form, N^2-(1(S)-ethoxycarbonyl-3-phenylpropyl)-N^6-trifluoroacetyl-L-lysine] |
| about 2.7 % by weight | CCOC(=O)[C@H](CCc1ccccc1)N[C@@H](CCCCNC(=O)C(F)(F)F)C(=O)O [II form, N^2-(1(S)-ethoxycarbonyl-3-phenylpropyl)-N^6-trifluoroacetyl-L-lysine] |
| about 3.1 % by weight | CCOC(=O)[C@H](CCc1ccccc1)N[C@@H](CCCCNC(=O)C(F)(F)F)C(=O)O [III form, N^2-(1(S)-ethoxycarbonyl-3-phenylpropyl)-N^6-trifluoroacetyl-L-lysine] |
